PMC8910004, “Hexokinase 2 Inhibition and Biological Effects of BNBZ and Its Derivatives: The Influence of the Number and Arrangement of Hydroxyl Groups” (International Journal of Molecular Sciences, 2022)

How the values were obtained:
[1] = target: T1, Hexokinase 2 (Homo sapiens, UniProt P52789); test: in vitro HK2 Inhibitor Screening Kit (G6PDH-coupled colorimetric), […], positive control; type: biochemical
T1 construct: gene HK2
T1 sequence (P52789 1-917): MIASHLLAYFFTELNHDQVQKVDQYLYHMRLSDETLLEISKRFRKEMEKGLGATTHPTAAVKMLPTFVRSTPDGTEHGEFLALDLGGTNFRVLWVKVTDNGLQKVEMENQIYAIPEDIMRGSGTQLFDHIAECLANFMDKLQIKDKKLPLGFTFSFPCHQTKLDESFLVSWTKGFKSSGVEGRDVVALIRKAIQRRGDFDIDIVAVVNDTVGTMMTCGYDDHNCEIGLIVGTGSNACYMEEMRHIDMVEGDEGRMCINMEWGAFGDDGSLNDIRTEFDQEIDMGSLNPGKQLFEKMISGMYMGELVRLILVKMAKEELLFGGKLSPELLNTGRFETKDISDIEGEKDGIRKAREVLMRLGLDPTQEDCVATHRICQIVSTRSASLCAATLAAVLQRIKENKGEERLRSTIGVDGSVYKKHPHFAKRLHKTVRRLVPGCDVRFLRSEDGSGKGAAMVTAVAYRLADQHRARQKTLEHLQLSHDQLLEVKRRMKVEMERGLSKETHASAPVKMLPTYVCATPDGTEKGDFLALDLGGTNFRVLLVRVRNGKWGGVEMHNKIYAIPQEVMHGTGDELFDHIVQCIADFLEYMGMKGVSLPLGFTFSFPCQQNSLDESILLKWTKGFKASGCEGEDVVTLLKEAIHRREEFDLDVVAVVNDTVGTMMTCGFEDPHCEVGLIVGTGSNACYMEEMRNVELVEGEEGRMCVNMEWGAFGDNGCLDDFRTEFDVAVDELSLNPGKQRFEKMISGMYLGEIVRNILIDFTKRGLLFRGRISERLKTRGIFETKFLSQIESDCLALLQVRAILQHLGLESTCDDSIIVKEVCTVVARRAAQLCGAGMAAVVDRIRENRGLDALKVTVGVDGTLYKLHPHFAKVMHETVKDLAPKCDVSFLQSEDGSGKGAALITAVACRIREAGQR

[2] = target: T2, Hexokinase 2 (H6-hHK2) (Homo sapiens, UniProt P52789); test: microscale thermophoresis (RED-Tris-NTA labelled His6-HK2); type: binding
T2 construct: gene HK2; N-terminal His6-tagged human HK2, aa 17-917
T2 sequence (P52789 17-917): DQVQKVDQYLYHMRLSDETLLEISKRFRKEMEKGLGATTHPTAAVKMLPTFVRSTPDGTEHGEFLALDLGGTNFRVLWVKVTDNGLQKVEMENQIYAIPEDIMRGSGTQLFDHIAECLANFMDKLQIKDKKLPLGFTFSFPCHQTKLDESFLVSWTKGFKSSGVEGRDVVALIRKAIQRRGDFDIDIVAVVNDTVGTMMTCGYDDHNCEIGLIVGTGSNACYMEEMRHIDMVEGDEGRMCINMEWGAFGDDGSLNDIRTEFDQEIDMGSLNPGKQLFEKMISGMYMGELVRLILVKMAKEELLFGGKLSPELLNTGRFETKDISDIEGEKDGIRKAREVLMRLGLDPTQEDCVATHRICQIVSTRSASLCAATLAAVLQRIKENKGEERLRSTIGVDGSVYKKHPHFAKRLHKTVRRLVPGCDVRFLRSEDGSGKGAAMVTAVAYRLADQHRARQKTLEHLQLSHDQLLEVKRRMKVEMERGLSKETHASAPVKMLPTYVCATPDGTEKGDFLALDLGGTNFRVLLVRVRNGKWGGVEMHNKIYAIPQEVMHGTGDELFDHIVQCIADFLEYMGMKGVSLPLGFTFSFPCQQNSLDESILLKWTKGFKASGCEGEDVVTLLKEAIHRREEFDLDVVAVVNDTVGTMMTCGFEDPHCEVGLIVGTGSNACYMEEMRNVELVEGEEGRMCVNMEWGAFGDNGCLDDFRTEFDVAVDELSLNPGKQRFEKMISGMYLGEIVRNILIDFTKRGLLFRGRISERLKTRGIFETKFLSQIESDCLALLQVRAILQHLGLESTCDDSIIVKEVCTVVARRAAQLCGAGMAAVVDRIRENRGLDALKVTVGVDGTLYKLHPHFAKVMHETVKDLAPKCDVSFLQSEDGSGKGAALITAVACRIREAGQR

[3] = target: T2, Hexokinase 2 (H6-hHK2); test: microscale thermophoresis (RED-Tris-NTA labelled His6-HK2); also inhibits isolated HK2 in kit assay; type: binding

Compound	activity at 5 µM [1] [%]	other results
OC[C@H]1OC(O)C[C@@H](O)[C@@H]1O (stereo partly shown) [2DG, 2-deoxyglucose]	9.9 ± 0.5	–
O=C(O)C(=O)CBr [3BP, 3-bromopyruvate]	2.5 ± 0.4	–
O=C(N/N=C/c1ccc(O)cc1O)c1ccc([N+](=O)[O-])cc1 [2b, (E)-N′-(2,4-dihydroxybenzylidene)-4-nitrobenzohydrazide]	–	Kd [2]: 58.9 µM
O=C(N/N=C/c1ccc(O)c(O)c1O)c1ccc([N+](=O)[O-])cc1 [2a, (E)-N′-(2,3,4-trihydroxybenzylidene)-4-nitrobenzohydrazide]	–	Kd [3]: 8.83 to 11 µM
